Laboratory results: ChEMBL document CHEMBL1201862, “PubChem BioAssay data set” (2004)
Calls of active or inactive are those of the source.

Columns and labels:
Streptokinase A = molecular target: T1, Streptokinase A (Streptococcus pyogenes serotype M1, UniProt P10520); test: viability-normalized secreted streptokinase activity reduction – plasminogen activation absorbance, OD405, dose response (AID 1914); format: functional, Streptococcus pyogenes M1 GAS;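 also: secreted streptokinase activity via plasminogen activation per viability signal from cell pellet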
T1 sequence (P10520 whole entry): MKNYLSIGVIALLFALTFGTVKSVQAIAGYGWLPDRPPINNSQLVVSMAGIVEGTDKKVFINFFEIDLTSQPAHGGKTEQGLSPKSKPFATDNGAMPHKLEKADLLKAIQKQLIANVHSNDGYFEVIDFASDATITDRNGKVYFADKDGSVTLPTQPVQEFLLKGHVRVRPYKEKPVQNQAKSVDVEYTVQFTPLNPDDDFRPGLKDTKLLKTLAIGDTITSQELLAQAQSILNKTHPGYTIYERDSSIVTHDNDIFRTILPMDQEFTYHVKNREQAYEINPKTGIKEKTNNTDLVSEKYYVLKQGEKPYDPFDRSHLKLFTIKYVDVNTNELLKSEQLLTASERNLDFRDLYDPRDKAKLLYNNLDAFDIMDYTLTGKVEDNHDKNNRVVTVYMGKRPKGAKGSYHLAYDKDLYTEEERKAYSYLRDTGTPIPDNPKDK

Streptococcus = test: GAS UMAA2166 growth inhibition – luminescence, BacTiterGlo, counter-screen for streptokinase expression inhibitor project, dose response (AID 1915); format: functional, organism-based;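 also: potency for reduction of bacterial viability or growth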
Phospholipase A2 = Phospholipase A2 (Homo sapiens, UniProt P04054); format: functional;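 also: confirmatory dose-response counterscreen on phospholipase A2, testing hits that came from an ultra-high-throughput screen for ATG4B inhibitors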
Chain of Phospholipase A2 (P04054 whole entry): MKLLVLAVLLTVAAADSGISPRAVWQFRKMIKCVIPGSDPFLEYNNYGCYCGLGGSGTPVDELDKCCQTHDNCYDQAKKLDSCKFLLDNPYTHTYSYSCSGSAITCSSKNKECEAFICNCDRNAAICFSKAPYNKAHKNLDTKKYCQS

[1] = molecular target: T2, Corticotropin-releasing factor receptor 2/Corticotropin-releasing factor-binding protein (Homo sapiens, UniProt P24387+Q13324); test: activators of CRF receptor 2 with binding protein – uHTS hits, confirmation (AID 602473); format: functional; details: read-out: EC50_Mean
T2 sequence (Q13324 whole entry): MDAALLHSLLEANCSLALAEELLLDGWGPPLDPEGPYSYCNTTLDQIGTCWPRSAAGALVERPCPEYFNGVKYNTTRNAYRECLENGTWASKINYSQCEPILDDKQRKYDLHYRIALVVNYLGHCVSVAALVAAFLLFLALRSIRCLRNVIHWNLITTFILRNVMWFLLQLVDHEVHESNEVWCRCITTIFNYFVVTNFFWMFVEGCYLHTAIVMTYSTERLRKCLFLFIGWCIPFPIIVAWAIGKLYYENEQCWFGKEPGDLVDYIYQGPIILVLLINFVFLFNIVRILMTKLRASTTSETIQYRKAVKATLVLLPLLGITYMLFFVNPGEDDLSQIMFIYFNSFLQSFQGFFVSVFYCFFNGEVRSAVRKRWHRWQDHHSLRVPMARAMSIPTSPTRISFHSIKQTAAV
T2 sequence (P24387 whole entry): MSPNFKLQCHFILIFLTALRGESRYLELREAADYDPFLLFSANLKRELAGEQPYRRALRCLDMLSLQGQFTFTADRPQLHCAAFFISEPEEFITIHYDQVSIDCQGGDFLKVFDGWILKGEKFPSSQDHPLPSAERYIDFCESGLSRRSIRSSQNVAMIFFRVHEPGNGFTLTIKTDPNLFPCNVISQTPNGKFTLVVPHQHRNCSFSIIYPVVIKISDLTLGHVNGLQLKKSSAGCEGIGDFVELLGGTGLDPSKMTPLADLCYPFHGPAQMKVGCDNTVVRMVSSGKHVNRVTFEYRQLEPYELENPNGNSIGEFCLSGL

[2] = test system: Streptococcus sp. 'group A'; test: Streptococcus pyogenes SK(-)GAS viability under kanamycin – luminescence, BacTiterGlo, confirmation, counter-screen for streptokinase expression inhibitor project, dose response (AID 1900); format: functional, organism-based
[3] = Luminescence Cell-Based Dose Retest to Confirm Inhibitors of Cancer Stem Cells. [Related pubchem assays (depositor defined):AID2717, AID2721]; format: functional; details: Homo sapiens
Cysteine protease ATG4B = Cysteine protease ATG4B (Homo sapiens, UniProt Q9Y4P1); format: functional;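 also: Fluorescence-based dose-response confirmation assay measuring inhibition of ATG4B activity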
Chain of Cysteine protease ATG4B (Q9Y4P1 whole entry): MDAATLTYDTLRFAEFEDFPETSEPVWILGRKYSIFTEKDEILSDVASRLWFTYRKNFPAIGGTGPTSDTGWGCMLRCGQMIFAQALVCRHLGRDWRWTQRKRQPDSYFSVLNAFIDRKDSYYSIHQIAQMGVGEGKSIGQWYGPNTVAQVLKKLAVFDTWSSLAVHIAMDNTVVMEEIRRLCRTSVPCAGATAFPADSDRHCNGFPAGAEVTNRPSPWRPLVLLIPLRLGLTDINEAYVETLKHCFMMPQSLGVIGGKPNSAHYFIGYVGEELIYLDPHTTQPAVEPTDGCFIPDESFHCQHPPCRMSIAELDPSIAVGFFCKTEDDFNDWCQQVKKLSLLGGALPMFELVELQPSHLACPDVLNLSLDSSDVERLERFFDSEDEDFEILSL

Candida albicans [4] = test: antifungal activity against resistant Candida strain – CaCi-8, fluconazole, Alamar Blue, dry powder, dose response (AID 488807); format: functional, organism-based
Candida albicans [5] = test: Candida growth effect without fluconazole – C. albicans CaCi-2, dry powder, counter-screen for antifungal drug resistance project, dose response (AID 488802); format: functional, organism-based
Candida albicans [6] = test: C. albicans growth inhibition with fluconazole – CaCi-2 strain, Alamar Blue, dry powder, set 4, dose response (AID 488943); format: functional, organism-based
NIH3T3 = test: mammalian cell viability counter-check – Alamar Blue, fluconazole, dry powder, cytotoxicity control for antifungal drug resistance project, dose response (AID 488809); format: functional, cell-based; details: Mus musculus
Candida albicans [7] = test: fluconazole-resistant Candida strain growth inhibitors – CaCi-8 strain, dry powder, set 4, dose response (AID 488950); format: functional, organism-based
[8] = molecular target: T3, Sentrin-specific protease 8 (Homo sapiens, UniProt Q96LD8); test: inhibition of sentrin protease 8 – biochemical, luminescence, set 2, SAR follow-up (AID 588601); format: functional
T3 sequence (Q96LD8 whole entry): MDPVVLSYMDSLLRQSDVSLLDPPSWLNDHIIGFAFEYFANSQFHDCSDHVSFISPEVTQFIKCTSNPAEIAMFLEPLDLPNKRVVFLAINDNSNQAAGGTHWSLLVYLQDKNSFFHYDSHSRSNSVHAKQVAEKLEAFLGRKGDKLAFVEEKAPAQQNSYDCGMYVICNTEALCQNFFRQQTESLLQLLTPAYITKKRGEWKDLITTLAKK

[9] = molecular target: T4, Sentrin-specific protease 6 (Homo sapiens, UniProt Q9GZR1); test: SAR Analysis of small molecule inhibitors of Sentrin-specific protease 6 (SENP6) using a Luminescent assay. [Related pubchem assays (depositor defined):AID2582, AID2599]; format: functional
T4 sequence (Q9GZR1 whole entry): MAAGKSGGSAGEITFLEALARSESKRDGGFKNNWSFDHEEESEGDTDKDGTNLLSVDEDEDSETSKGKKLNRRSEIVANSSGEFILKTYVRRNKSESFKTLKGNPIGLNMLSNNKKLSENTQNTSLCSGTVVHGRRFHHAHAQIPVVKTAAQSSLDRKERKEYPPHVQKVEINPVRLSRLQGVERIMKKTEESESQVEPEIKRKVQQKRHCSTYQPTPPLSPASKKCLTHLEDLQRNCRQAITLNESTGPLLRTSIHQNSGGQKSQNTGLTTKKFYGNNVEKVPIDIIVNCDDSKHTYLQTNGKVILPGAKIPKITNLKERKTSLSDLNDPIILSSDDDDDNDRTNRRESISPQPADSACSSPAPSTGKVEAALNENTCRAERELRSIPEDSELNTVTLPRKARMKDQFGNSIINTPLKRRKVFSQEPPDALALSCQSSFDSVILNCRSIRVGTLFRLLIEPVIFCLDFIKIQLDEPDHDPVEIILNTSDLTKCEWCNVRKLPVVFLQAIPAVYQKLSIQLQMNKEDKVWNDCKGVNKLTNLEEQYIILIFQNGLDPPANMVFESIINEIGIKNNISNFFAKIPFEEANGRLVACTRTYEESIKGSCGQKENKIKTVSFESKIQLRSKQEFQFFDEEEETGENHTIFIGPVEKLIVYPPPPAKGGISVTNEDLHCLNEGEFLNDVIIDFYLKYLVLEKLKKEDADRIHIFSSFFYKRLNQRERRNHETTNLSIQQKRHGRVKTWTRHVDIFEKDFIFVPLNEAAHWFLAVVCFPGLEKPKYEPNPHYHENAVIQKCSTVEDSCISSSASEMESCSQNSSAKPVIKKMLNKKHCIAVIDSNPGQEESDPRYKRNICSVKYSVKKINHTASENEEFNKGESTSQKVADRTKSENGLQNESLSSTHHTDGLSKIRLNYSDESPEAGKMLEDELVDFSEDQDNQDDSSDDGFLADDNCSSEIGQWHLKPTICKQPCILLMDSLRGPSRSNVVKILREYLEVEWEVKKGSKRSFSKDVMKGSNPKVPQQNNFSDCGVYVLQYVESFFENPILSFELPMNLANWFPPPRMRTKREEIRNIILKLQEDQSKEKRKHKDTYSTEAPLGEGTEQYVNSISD

Caspase-3 [10] = molecular target: T5, Caspase-3 (Homo sapiens, UniProt P42574); test: SAR Analysis of small molecule inhibitors of Sentrin-specific proteases (SENPs) using a Caspase-3 Selectivity assay. [Related pubchem assays (depositor defined):AID2540, AID2599, AID434973, AID489001]; format: functional
T5 sequence (P42574 whole entry): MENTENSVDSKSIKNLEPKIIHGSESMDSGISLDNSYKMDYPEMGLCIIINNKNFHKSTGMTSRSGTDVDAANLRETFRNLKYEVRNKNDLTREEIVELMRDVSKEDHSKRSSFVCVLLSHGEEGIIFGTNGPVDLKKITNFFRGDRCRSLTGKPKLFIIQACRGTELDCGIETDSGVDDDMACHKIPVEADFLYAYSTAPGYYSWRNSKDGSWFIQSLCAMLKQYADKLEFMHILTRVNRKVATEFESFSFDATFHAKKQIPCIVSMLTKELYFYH

[11] = molecular target: T6, Sentrin-specific protease 7 (Homo sapiens, UniProt Q9BQF6); test: inhibition of human SENP7 cleavage activity – biochemical, luminescence, SAR follow-up (AID 504497); format: functional
T6 sequence (Q9BQF6 whole entry): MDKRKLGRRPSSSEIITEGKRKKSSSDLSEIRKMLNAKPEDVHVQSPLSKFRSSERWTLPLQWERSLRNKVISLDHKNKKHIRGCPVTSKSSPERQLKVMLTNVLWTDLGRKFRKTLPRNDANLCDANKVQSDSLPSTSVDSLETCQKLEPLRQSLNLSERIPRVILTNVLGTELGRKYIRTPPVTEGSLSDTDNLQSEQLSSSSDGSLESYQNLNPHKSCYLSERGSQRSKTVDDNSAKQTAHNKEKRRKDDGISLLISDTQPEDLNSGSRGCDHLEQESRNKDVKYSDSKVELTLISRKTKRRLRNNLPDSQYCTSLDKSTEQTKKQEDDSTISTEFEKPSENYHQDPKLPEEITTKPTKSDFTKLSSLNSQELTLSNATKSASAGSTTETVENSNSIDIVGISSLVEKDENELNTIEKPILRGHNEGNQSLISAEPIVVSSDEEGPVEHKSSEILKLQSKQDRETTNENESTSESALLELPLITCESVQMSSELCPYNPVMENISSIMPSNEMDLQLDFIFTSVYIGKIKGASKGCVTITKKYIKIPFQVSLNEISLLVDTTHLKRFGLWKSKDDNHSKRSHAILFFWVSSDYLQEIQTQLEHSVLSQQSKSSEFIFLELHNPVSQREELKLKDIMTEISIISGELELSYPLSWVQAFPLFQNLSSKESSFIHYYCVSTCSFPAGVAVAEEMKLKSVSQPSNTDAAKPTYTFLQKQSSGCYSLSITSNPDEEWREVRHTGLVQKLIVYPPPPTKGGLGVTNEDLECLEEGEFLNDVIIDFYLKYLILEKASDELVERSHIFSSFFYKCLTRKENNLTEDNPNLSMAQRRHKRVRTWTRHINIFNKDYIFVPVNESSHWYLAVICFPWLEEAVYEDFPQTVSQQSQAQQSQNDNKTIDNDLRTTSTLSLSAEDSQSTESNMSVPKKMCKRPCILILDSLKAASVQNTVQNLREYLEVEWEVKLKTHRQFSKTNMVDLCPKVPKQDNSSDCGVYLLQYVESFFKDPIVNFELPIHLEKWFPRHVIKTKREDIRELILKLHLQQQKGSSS

[12] = molecular target: T4, Sentrin-specific protease 6; test: inhibition of human SENP6 catalytic domain – biochemical, luminescence, set 2, SAR follow-up (AID 588598); format: functional
[13] = molecular target: T3, Sentrin-specific protease 8; test: inhibition of human SENP8 cleavage activity – biochemical, luminescence, SAR follow-up (AID 504501); format: functional
Caspase-3 [14] = molecular target: T5, Caspase-3; test: inhibition of recombinant caspase-3 activity – biochemical, luminescence, set 2, selectivity assay for SENP protease inhibitor project, SAR follow-up (AID 588599); format: functional
[15] = molecular target: T6, Sentrin-specific protease 7; test: inhibition of human SENP7 cleavage activity – biochemical, luminescence, set 2, SAR follow-up (AID 588600); format: functional
[16] = Vero cell cytotoxicity, cytotoxicity control for M. tuberculosis inhibitor project, purified and synthesized samples, set 3 (AID 504684); format: functional
[17] = THP-1 cell cytotoxicity, dose response, cytotoxicity control, set 3 (AID 504852); format: functional; details: Mycobacterium tuberculosis
[18] = THP-1 cell cytotoxicity, cytotoxicity control, set 4 (AID 504911); format: functional; details: Mycobacterium tuberculosis
[19] = molecular target: DNA dC->dU-editing enzyme APOBEC-3A (Homo sapiens, UniProt P31941); test: SAR analysis of small molecule inhibitors of APOBEC3A DNA Deaminase via a fluorescence-based single-stranded DNA deaminase assay.; format: functional; details: read-out: IC50_Mean
Chain of DNA dC->dU-editing enzyme APOBEC-3A (P31941 whole entry): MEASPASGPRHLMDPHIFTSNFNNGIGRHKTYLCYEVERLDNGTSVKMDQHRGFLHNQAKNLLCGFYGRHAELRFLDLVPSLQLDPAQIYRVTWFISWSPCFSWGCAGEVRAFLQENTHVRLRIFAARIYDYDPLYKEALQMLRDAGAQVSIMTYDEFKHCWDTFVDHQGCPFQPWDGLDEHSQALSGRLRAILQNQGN

[20] = molecular target: DNA dC->dU-editing enzyme APOBEC-3G (Homo sapiens, UniProt Q9HC16); test: inhibition of APOBEC3G ssDNA deamination – biochemical, fluorescence, single-stranded DNA substrate, SAR follow-up (AID 602136); format: functional; details: read-out: IC50_Mean
Chain of DNA dC->dU-editing enzyme APOBEC-3G (Q9HC16 whole entry): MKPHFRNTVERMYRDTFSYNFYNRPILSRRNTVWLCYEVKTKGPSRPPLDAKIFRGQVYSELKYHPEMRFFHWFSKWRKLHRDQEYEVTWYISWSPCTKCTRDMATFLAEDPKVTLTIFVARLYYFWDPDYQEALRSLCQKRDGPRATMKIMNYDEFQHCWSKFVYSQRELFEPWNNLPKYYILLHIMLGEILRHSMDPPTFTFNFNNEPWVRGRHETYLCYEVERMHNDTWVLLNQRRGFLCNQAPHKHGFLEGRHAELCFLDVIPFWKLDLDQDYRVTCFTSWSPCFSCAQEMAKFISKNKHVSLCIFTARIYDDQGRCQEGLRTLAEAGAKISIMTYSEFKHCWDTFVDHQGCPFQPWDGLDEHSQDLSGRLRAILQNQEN

Cc1cc(C)cc(-n2c(C)cc(/C=C3\C(=N)N4N=C(CC(C)C)SC4=NC3=O)c2C)c1
EC50 (Streptokinase A): > 50 µM (not active)
EC50 (Streptococcus): 9.46 µM (active)
IC50 (Phospholipase A2): 2.3 µM (active)
EC50 [1]: 6.77 µM (active)
EC50 [2]: 4.57 µM (active)
AC50 [3]: 2.82 µM (active)
IC50 (Cysteine protease ATG4B): 3.65 µM (active)

O=C(c1ccc(Cl)c(Cl)c1)N1CCN(c2ccnc3cc(Cl)ccc23)CC1
AC50 (Candida albicans [4]): 1.14 µM (active)
AC50 (Candida albicans [5]): 45.2 µM (active)
AC50 (Candida albicans [6]): 726 nM (active)
AC50 (NIH3T3): 43.6 µM (active)
AC50 (Candida albicans [7]): 515 nM (active)

Oc1ccccc1-c1nc(/C=C/c2ccccc2)no1
IC50 [8]: 2.54 µM (active)
IC50 [9]: 8.4 µM (active)
IC50 (Caspase-3 [10]): 6.9 µM (active)
IC50 [11]: 2.8 µM (active)
IC50 [12]: 2.12 µM (active)
IC50 [13]: 71 µM (active)
IC50 (Caspase-3 [14]): 3.6 µM (active)
IC50 [15]: 2.71 µM (active)

Cc1[nH]c(SCC(=O)N(C)c2ccccc2)nc(=O)c1C
CC50 [16]: > 100 µM (active)
CC50 [17]: > 100 µM (active)
CC50 [18]: > 100 µM (active)

O=C(CSc1nnc2scc(-c3ccc(Cl)cc3)n12)N1CCOCC1
IC50 [19]: > 99 µM (inactive)
IC50 [20]: 28 µM (inactive)
